Results from patent US20240010679A1, “ANTIN[…] AND USES THEREOF” (THE UNIVERSITY OF BRITISH COLUMBIA, priority 2020, published 2024).
Converted amounts (≈) assume the structure as drawn. “And” between values parts separate entries of the source, which are not always exact repeats. Equal values may be shown once. “Also recorded” adds a separate entry of the source. Read-outs that look alike come from different tables or passages of the source.

How the values were obtained:
human DOR = human DOR (Homo sapiens, UniProt P41143); conditions: relative scintillation compared to Leu-ENK at 6 nmol/L, [3H]DADLE displacement, mean of duplicates
Method: Binding studies were performed by Eurofins Scientific (Cereb, France). Briefly, COS-1 cells transfected with plasmids encoding human DOR (Gene ID: 4985) were grown in Dulbecco's modified Eagle's medium with 10% fetal calf serum and scraped from plates. Membranes were prepared using a Dounce homogenizer and stored at −80° C. until used. Membranes (40 μg protein/tube) were suspended in Tris-HCl, pH 7.4, for 2 h at 25° C., rapidly filtered on 0.1% polyethylenimine-pretreated GF/B filters and washed with the same cold Tris buffer (3×) using a Brandel cell harvester. […] Nonspecific binding was determined in the presence of naltrexone (10 μmol/L).

Plasma stability assay = format: in vitro ADME, mouse; conditions: for remaining at 1 h, 0.315 mmol/L: mouse plasma, 37° C., read-out: Intact peptide after 1 h in plasma
Method: (§1) Peptides (1.5 g/L) dissolved in saline/TWEEN 80/DMSO (90:5:5, v/v) were mixed with mouse plasma or human cerebrospinal fluid, respectively, to a final concentration of 0.315 mmol/L and incubated in a thermomixer (37° C., 750 rpm) Aliquots (45 μL) were mixed with aqueous acetonitrile (90%, v/v, 300 μL) containing formic acid (FA, 0.1%, v/v) and incubated on ice (30 min). After two centrifugation steps (12,000×g, 5 min), the supernatant (300 μL) was diluted in water (900 μL), dried by lyophilization, reconstituted in aqueous acetonitrile (4.5%, v/v) containing FA (0.1%, v/v), stored at −20° C., and analyzed with reverse-phase chromatography (RPC) on a C8-column (1 mm×150 mm) with a linear aqueous acetonitrile gradient typically from 5 to 95% eluent B in 15 min (eluent A: 0.1% (v/v) aqueous FA; eluent B: 90% aqueous acetonitrile containing 0.1% (v/v) FA. The RPC was coupled on-line to a UV detector measuring the absorbance at 214 nm and a mass spectrometer (MS) for peak identification. Peptide quantities were estimated using peak areas of the UV signal relative to the initial peak areas (t=0).

[1] = Stability in the presence of human liver microsomes; format: in vitro ADME; conditions: after 1 h, read-out: drug degradation in the presence of human liver microsomes
female CD-1 mice [2] = assay: Open field test; conditions: 15 mg/kg s.c.
From the text: (§2) Mice were allowed an acclimatization period of at least one week in the animal facility before experiments.

female CD-1 mice [3] = assay: Respiratory rate assay; conditions: s.c.; for breathing depression: KK-103 13 mg/kg, morphine 10 mg/kg, FIG. 10C
Method: The respiratory rate was assessed in awake mice lightly restrained in a well-ventilated 50 mL falcon tube with a darkened tip. Prior to the drug treatment, each animal was habituated in the tube for 30 min. The falcon tube was secured onto a stand facing lengthwise to a video camera. […] Animals were recorded at selected time points for 10 min to measure the respiration rate.

[4] = system: human liver microsome enzymes; assay: Inhibition of human liver microsome enzymes; format: in vitro ADME
[5] = Plasma and brain concentrations after injection (UPLC); format: in vivo; conditions: female, CD-1, mouse; for tissue level at time at 2 h: 2 h after s.c. injection; for half-life: 50 mg/kg, read-out: elimination half-life
Method: Blood collection from mice was performed by saphenous vein punctuation (volume withdrawn <7 mL/kg) followed by a cardiac puncture later, allowing for 2 sampling time points per animal with a minimum sampling interval of 50 min. Cardiac puncture was an experimental endpoint after which animals were euthanized using isoflurane followed by cervical dislocation. Blood samples were collected in EDTA coated collection tubes and chilled on ice immediately after collection. Blood plasma was separated from whole blood by centrifugation at 2.000 g for 7 min and carefully removed from the cell pellet. Blood plasma samples were immediately frozen on dry ice and stored at −80 C until further analysis.
Samples for liquid chromatography-mass spectrometry analysis were prepared by acetonitrile protein precipitation. Therefore, 50 μL of plasma was combined with 300 μL ice cold 90% acetonitrile containing 0.1% formic acid, briefly vortexed and put on ice for 30 min. After that samples were centrifuged at 4 C for 5 min (>12 k rpm) and supernatant (325 μL) transferred in a new tube. The previous centrifugation step was repeated and a final volume of 305 μL of the supernatant transferred into a new 1.5 mL tube. Water (800 μL) was added to samples after which they were frozen and lyophilized. The dried samples were resolubilized in 50 μL 4.5% acetonitrile, 0.1% formic acid in water, vortexed (1 min), sonicated (5 min), vortexed (1 min) and centrifuged for 5 min (>12 k rpm). Samples were measured in an ACQUITY UPLC H-Class chromatography system (Waters, Milford, MA) and a sample volume of 10 μL was injected onto the reverse phase column.
An ACQUITY UPLC H-Class chromatography system (Waters, Milford, MA) coupled on-line to a photodiode array detector (absorbance recorded at 214 nm, Waters) and to the electrospray ionization source on a mass spectrometer (QDa detector, Waters) operated in the positive ion mode was used. Separation relied on a BEH-C18 column (inner diameter: 1.1 mm; length: 50 mm; particle size: 1.7 μm, Waters) at a flow rate of 0.1 mL/min using a linear aqueous acetonitrile gradient in the presence of FA (0.1%, v/v).
Ionization was carried out at a source temperature of 450° C. using a cone voltage of 10 V and a capillary voltage of 1.5 kV. Mass spectra were typically acquired for an m/z range from 50 to 1250 at a sampling rate of 2 points per second. Quantities of the peptide were determined based on a calibration curve of the analyte in mouse plasma and the peak areas of the UV signal at 214 nm as well as mass spectrometry by detecting the singly charged molecular ions.

female CD1 mice [6] = assay: Dependence test (naloxone-induced jumps); conditions: twice daily s.c., KK-103 13 mg/kg, morphine 10 mg/kg; naloxone 4 mg/kg i.p., first 10 min
CSF stability assay = format: in vitro ADME, human; conditions: 5 h of incubation
Method: as §1

[7] = Solubility in injection vehicle; format: physicochemical; conditions: normal saline/TWEEN 80 (9/1, v/v) injection vehicle
female CD1 mice [8] = assay: Toxicity, highest deliverable single dose; format: in vivo, mouse; conditions: single s.c. dose
Method: Animals were monitored and evaluated every 30 min. After 3 h, the time of maximal antinociceptive effect, animals were euthanized.

female CD1 mice [9] = conditions: mouse, in vivo; cited from earlier work
female CD-1 mice [10] = assay: Formalin foot assay; format: in vivo, mouse; conditions: s.c.
Method: as §2
On the day of the experiment, mice were acclimatized to the experimental setup by putting them in darkened, non-transparent plexiglas cylinders (height, 20 cm; diameter, 9 cm) placed on a glass plane for 2 h. […] After successful injection, mice were immediately placed into cylinders and their behavior was monitored for 1 h. […] The accumulated licking and biting time of each animal was determined and recorded in 5 min bins. The total response time was plotted as early phase 1 from 0 to 5 min, and late phase 2 from 20 to 40 min after formalin injection.

human DOR, sequence (P41143 whole entry): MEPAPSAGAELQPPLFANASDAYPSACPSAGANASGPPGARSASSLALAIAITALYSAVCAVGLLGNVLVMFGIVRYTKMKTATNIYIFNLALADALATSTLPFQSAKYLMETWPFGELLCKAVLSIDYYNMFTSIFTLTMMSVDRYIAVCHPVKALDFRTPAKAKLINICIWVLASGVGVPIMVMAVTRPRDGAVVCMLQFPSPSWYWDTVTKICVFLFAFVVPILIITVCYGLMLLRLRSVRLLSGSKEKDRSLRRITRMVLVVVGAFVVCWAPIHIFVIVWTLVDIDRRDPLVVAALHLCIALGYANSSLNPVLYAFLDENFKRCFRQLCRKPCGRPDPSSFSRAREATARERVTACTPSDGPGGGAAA

COC(=O)[C@H](CC(C)C)NC(=O)[C@H](Cc1ccccc1)NC(=O)CNC(=O)CNC(=O)[C@H](Cc1ccc(O)cc1)NC(C)=O [KK-14]
Relative Binding to DOR (human DOR): 38%
remaining at 1 h, 0.315 mmol/L (Plasma stability assay): 82 ± 3%

COC(=O)[C@H](CC(C)C)NC(=O)[C@H](Cc1ccccc1)NC(=O)CNC(=O)CNC(=O)[C@H](Cc1ccc(O)cc1)NC(=O)Cc1ccccc1 [KK-81]
Relative Binding to DOR (human DOR): 41%
remaining at 1 h, 0.315 mmol/L (Plasma stability assay): 88 ± 11%

CCCCCC(=O)N[C@@H](Cc1ccc(O)cc1)C(=O)NCC(=O)NCC(=O)N[C@@H](Cc1ccccc1)C(=O)N[C@@H](CC(C)C)C(=O)OC [KK-93]
Relative Binding to DOR (human DOR): 33%
remaining at 1 h, 0.315 mmol/L (Plasma stability assay): 85 ± 11%

COC(=O)[C@H](CC(C)C)NC(=O)[C@H](Cc1ccccc1)NC(=O)CNC(=O)CNC(=O)[C@H](Cc1ccc(O)cc1)NC(=O)C(C)(C)C [KK-102]
Relative Binding to DOR (human DOR; listed as KK-102/ KK-103): 68%
conversion in mouse plasma (deesterification of methyl ester) (Plasma stability assay): converting to KK-103; also recorded: rapidly deesterifies to KK-103
remaining at 1 h, 0.315 mmol/L (Plasma stability assay): 93 ± 1%

CC(C)C[C@H](NC(=O)[C@H](Cc1ccccc1)NC(=O)CNC(=O)CNC(=O)[C@H](Cc1ccc(O)cc1)NC(=O)C(C)(C)C)C(=O)O [KK-103]
metabolised at 1 h [1]: < 10%
effect on locomotor activity (female CD-1 mice [2]): without effecting the locomotor activity
respiration rate versus vehicle (female CD-1 mice [3]; 13 mg/kg, any time point between 30 and 240 min): comparable to that of mice treated with vehicle
breathing depression (female CD-1 mice [3]): did not induce breathing depression
inhibition of human liver microsome enzymes [4]: did not inhibit
tissue level at time at 2 h ([5]; brain, sc, read-out: concentration in brain): 200 ng/g
half-life ([5]; plasma, iv): 4.8 min
half-life ([5]; plasma, sc): 8.9 min
tissue level at time at 2 h ([5]; plasma, sc, read-out: concentration in plasma): 170000 ng/g
Relative Binding to DOR (human DOR): 65% and ~70%
physical dependence: withdrawal jumps after naloxone (female CD1 mice [6]): not a single jump was observed
stability in cerebrospinal fluid (CSF stability assay): almost no degradation
solubility [7]: 5000 µg/mL (≈ 7.82 mM)
time stable in mouse plasma (Plasma stability assay): at least 5 h
half-life in mouse plasma (Plasma stability assay; extrapolated): 36 h
remaining at 1 h, 0.315 mmol/L (Plasma stability assay): 93%
half-life at 0.315 mmol/L (Plasma stability assay; mouse, plasma, extrapolated): 37 h
toxicity at the highest deliverable dose (female CD1 mice [8]): no toxicity

CCCCCCCC(=O)N[C@@H](Cc1ccc(O)cc1)C(=O)NCC(=O)NCC(=O)N[C@@H](Cc1ccccc1)C(=O)N[C@@H](CC(C)C)C(=O)OC [KK-105]
Relative Binding to DOR (human DOR): 59%
remaining at 1 h, 0.315 mmol/L (Plasma stability assay): 80 ± 12%

C=CCCC(=O)N[C@@H](Cc1ccc(O)cc1)C(=O)NCC(=O)NCC(=O)N[C@@H](Cc1ccccc1)C(=O)N[C@@H](CC(C)C)C(=O)OC [KK-108]
Relative Binding to DOR (human DOR): 34%
remaining at 1 h, 0.315 mmol/L (Plasma stability assay): 73 ± 7%

COC(=O)[C@H](CC(C)C)NC(=O)[C@H](Cc1ccccc1)NC(=O)CNC(=O)CNC(=O)[C@H](Cc1ccc(O)cc1)NC(=O)C1CCCCC1 [KK-112]
Relative Binding to DOR (human DOR): 13%
remaining at 1 h, 0.315 mmol/L (Plasma stability assay): 62 ± 7%

CC(C)C[C@H](NC(=O)[C@H](Cc1ccccc1)NC(=O)CNC(=O)CNC(=O)[C@@H](N)Cc1ccc(O)cc1)C(=O)O [Leu-ENK, YGGFL, reference compound]
remaining at 1 h, 0.315 mmol/L (Plasma stability assay): 23 ± 3%

CN1CC[C@]23c4c5ccc(O)c4O[C@H]2[C@@H](O)C=C[C@H]3[C@H]1C5 [morphine]
dose up to which safe to use (female CD1 mice [9]): up to 60 mg/kg
decrease of respiratory rate compared with vehicle control (female CD-1 mice [3]; 10 mg/kg, 30 min post injection): 56%
breathing depression (female CD-1 mice [3]): significant reduction of breathing rate
nociceptive response in phase 2, in words (female CD-1 mice [10]; 10 mg/kg, phase 2 (20-40 min)): completely diminished the nociceptive response
reduction of paw licking and biting time, phase 1 (0-5 min), compared to the control (female CD-1 mice [10]; morphine 10 mg/kg, KK-103 13 mg/kg): 30%
physical dependence: withdrawal jumps after naloxone (female CD1 mice [6]): significant withdrawal syndromes
